Patent publication US11285130B2, “Treatment of mitochondrial diseases” (Khondrion IP B.V., priority 2017, dated 2022)
Where two headings read alike, the source gives them in different places.

Legend:
hERG potassium channel = hERG potassium channel (Homo sapiens, UniProt Q12809); experiment: hERG blocking; type: biochemical
[1] = MAD study pharmacokinetic analysis; type: in vivo, human; conditions: for AUC / Cmax / Tmax: male, human, plasma, oral; for Cmax: read-out: Cmax (Geomean); for Tmax: read-out: tmax* (median)
Procedure: Dose escalation to the next dose level was done after evaluation of the safety and the first 24-hour pharmacokinetic results of the previous dose. […] Anticipated exposures at this starting dose were just below the Minimum Anticipated Biological Effect Level (MABEL). Placebo (an in taste and appearance matching oral liquid) was also administered orally on one occasion in the single-ascending dose part and b.i.d. for 7 Days in the MAD part. […] All samples were stored at <-70° C. until analysis. […] For mean value calculations, all values below the limit of quantification (LOQ) were set to zero. […] The non-compartmental pharmacokinetic analysis was performed using Phoenix, Version 6.3 (Pharsight Corporation, Mountain View, Calif., USA). […] The PK parameters were calculated on the basis of the actual blood sampling time points relative to dosing. Selected pharmacokinetic parameters (Cmax, tmax, t1/2, AUClast and AUC0-int) following single-dose administration and selected pharmacokinetic parameters Cmax, tmax, [NT], the accumulation factor (Racc) and time to reach steady state) following multiple dose administration were determined. In urine, the percentage of dose excreted in urine was determined for the single- and multiple-dose administration.

[2] = 100 mg, MAD, KH176 100 mg b.i.d, Day 1
[3] = 100 mg, MAD, KH176 100 mg b.i.d, Day 7
[4] = 200 mg, MAD, KH176 200 mg b.i.d, Day 1
[5] = 200 mg, MAD, KH176 200 mg b.i.d, Day 7
[6] = 400 mg, MAD, KH176 400 mg b.i.d, Day 1
[7] = 400 mg, MAD, KH176 400 mg b.i.d, Day 7

Chain of hERG potassium channel (Q12809 whole entry): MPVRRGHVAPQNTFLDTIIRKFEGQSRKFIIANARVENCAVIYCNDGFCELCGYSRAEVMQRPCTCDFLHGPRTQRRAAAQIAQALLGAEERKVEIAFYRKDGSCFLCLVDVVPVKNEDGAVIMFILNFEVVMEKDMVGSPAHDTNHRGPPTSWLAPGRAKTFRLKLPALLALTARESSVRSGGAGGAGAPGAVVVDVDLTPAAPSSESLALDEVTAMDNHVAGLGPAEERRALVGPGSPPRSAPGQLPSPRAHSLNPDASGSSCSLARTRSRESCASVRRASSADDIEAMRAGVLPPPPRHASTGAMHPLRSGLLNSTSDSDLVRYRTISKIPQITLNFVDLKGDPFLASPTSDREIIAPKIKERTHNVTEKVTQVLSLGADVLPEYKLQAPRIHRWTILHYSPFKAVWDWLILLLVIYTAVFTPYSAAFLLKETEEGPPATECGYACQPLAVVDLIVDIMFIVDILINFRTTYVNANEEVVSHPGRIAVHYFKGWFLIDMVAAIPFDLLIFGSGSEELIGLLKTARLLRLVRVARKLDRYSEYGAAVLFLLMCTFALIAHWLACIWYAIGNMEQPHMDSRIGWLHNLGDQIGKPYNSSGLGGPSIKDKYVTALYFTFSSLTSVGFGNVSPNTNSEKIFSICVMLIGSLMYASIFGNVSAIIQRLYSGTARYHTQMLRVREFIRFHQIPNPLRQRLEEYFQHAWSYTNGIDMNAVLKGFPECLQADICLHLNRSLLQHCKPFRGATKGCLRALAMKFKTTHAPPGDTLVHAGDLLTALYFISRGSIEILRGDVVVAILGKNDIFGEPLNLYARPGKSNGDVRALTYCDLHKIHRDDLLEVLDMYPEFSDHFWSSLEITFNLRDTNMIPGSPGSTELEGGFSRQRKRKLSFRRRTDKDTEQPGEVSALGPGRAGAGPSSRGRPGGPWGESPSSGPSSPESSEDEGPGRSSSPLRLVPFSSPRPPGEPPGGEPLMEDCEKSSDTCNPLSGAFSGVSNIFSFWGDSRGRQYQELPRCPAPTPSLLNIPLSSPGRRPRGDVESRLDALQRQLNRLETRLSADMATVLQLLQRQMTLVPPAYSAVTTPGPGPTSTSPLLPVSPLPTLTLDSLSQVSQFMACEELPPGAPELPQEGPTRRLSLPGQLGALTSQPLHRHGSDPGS

In the case of `Cc1c(C)c2c(c(C)c1O)CC[C@@](C)(C(=O)N[C@@H]1CCCNC1)O2.Cl` [KH176, (S)-6-hydroxy-2,5,7,8-tetramethyl-N-((R)-piperidin-3-yl)chroman-2-carboxamide hydrochloride], the “IC50 of hERG blocking relative to the Cmax for the highest dose” value (hERG potassium channel) is reported as 3 times, the “Racc (accumulation ratio, Geomean)” value ([1]; MAD, KH176 100 mg b.i.d, Day 7) is reported as 2.52 and the “Racc (accumulation ratio, Geomean)” value ([1]; MAD, KH176 200 mg b.i.d, Day 7) is reported as 2.65. For the same compound, the “Racc (accumulation ratio, Geomean)” value ([1]; MAD, KH176 400 mg b.i.d, Day 7) was 2.17, the “steady concentrations reached by (first trough measurement)” value ([1]; MAD, mean trough concentration-time curves) was no more than 4 days and the AUC ([1]; 100 mg, MAD, KH176 100 mg b.i.d, Day 1, read-out: AUCtau (Geomean)) was 1.09 µg·h/mL. The Cmax [1, 2] was 0.184 µg/mL, the Tmax [1, 2] was 1.25 h and the AUC ([1]; 100 mg, MAD, KH176 100 mg b.i.d, Day 7, read-out: AUCtau (Geomean)) was 2.76 µg·h/mL. It also gave a Cmax [1, 3] of 0.353 µg/mL, a Tmax [1, 3] of 1 h and an AUC ([1]; 200 mg, MAD, KH176 200 mg b.i.d, Day 1, read-out: AUCtau (Geomean)) of 2.25 µg·h/mL. It also gave a Cmax [1, 4] of 0.313 µg/mL, a Tmax [1, 4] of 1.75 h and an AUC ([1]; 200 mg, MAD, KH176 200 mg b.i.d, Day 7, read-out: AUCtau (Geomean)) of 5.96 µg·h/mL. For the same compound, the Cmax [1, 5] was 0.748 µg/mL, the Tmax [1, 5] was 2 h and the AUC ([1]; 400 mg, MAD, KH176 400 mg b.i.d, Day 1, read-out: AUCtau (Geomean)) was 6.89 µg·h/mL. It also gave a Cmax [1, 6] of 1.33 µg/mL, a Tmax [1, 6] of 1 h and an AUC ([1]; 400 mg, MAD, KH176 400 mg b.i.d, Day 7, read-out: AUCtau (Geomean)) of 14.9 µg·h/mL. For the same compound, the Cmax [1, 7] was 2.1 µg/mL, the Tmax [1, 7] was 1.5 h and the AUC ([1]; steady state, BID, read-out: AUCtau (one dosing interval, 12 hours), range) was 2.13 to 3.68 µg·h/mL. For the same compound, the “average concentrations, range” value ([1]; steady state, 100 mg BID) was 177.5 to 306.6 ng/mL and the “maximum concentration, range” value ([1]; steady state, 100 mg BID, healthy subjects) was 303 to 458 ng/mL.
